Changes are numbered by the printed parent chain.
Experiments:
Format in all cases: biochemical
[1] = biological target: T1, MaeA (NAD+-dependent malic enzyme) (Escherichia coli, UniProt P26616); assay: NAD(P)H formation at […] nm, Michaelis-Menten fit; conditions: 50 mM Tris HCl pH 7.5, 10 mM MgCl2, 30 °C, apparent
T1 construct: N-terminal His-tag (modified pET22b(+)), expressed in E. coli BL21(DE3), HisTrap purified
T1 sequence (P26616 1-565): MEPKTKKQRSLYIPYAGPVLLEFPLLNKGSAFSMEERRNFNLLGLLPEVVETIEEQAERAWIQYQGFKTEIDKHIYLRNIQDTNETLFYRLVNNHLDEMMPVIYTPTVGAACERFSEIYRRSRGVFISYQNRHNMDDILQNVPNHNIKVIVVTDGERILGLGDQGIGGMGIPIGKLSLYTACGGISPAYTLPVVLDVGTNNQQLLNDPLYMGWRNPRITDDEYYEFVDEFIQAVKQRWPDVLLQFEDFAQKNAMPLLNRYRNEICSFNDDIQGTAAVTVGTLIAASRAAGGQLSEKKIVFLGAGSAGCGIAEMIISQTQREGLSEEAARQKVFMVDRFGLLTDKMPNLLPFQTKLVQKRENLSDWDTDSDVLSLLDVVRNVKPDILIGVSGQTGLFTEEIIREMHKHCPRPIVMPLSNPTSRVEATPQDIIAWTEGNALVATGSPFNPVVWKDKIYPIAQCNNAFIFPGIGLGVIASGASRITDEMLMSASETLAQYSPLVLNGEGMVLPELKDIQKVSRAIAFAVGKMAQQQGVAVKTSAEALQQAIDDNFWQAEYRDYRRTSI

[2] = biological target: T2, MaeA (NAD+-dependent malic enzyme) (Escherichia coli, UniProt P26616, L176V/D336N); assay: NAD(P)H formation at […] nm, Michaelis-Menten fit; conditions: 50 mM Tris HCl pH 7.5, 10 mM MgCl2, 30 °C; L-malate at 6 to 10 times its KM; apparent
T2 construct: N-terminal His-tag (modified pET22b(+)), expressed in E. coli BL21(DE3), HisTrap purified
T2 sequence (P26616 1-565 L176V/D336N): T1 sequence (P26616 1-565) with L176V, D336N

[3] = biological target: T3, MaeA (NAD+-dependent malic enzyme) (Escherichia coli, UniProt P26616, D336N); assay: NAD(P)H formation at […] nm, Michaelis-Menten fit; conditions: 50 mM Tris HCl pH 7.5, 10 mM MgCl2, 30 °C; L-malate at 6 to 10 times its KM; apparent
T3 construct: N-terminal His-tag (modified pET22b(+)), expressed in E. coli BL21(DE3), HisTrap purified
T3 sequence (P26616 1-565 D336N): T1 sequence (P26616 1-565) with D336N

[4] = biological target: T4, Lpd (dihydrolipoamide dehydrogenase; lipoamide dehydrogenase) (Escherichia coli, UniProt P0A9P0, E205A); assay: NAD(P)H formation at […] nm, nonlinear fit of initial rates; conditions: 100 mM Na phosphate, 100 mM KCl, 8 mM TCEP, pH 7.6, room temperature; 4 mM dihydrolipoamide; apparent
T4 construct: gene lpdA; N-terminal His-tag (modified pET22b(+)), expressed in E. coli BL21(DE3) Codon+, HisTrap and gel filtration
T4 sequence (P0A9P0 2-474 E205A): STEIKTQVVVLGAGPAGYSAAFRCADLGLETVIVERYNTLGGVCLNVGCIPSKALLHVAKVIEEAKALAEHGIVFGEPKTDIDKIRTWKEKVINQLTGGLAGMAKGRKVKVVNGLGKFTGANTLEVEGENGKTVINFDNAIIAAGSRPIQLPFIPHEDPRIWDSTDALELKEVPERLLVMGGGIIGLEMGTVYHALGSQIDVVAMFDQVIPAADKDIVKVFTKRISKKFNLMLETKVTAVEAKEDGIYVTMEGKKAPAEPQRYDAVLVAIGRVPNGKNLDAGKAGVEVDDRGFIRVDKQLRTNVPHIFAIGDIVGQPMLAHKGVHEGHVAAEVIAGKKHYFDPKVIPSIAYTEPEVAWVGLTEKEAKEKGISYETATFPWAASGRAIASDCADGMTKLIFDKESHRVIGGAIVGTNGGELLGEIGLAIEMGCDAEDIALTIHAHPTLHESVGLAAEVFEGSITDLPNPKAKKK

[5] = biological target: T5, MaeA (NAD+-dependent malic enzyme) (Escherichia coli, UniProt P26616, I283N/D336A); assay: NAD(P)H formation at […] nm, Michaelis-Menten fit; conditions: 50 mM Tris HCl pH 7.5, 10 mM MgCl2, 30 °C; L-malate at 6 to 10 times its KM; apparent
T5 construct: N-terminal His-tag (modified pET22b(+)), expressed in E. coli BL21(DE3), HisTrap purified
T5 sequence (P26616 1-565 I283N/D336A): T1 sequence (P26616 1-565) with I283N, D336A

[6] = biological target: T6, Lpd (dihydrolipoamide dehydrogenase; lipoamide dehydrogenase) (Escherichia coli, UniProt P0A9P0, E205G); assay: NAD(P)H formation at […] nm, nonlinear fit of initial rates; conditions: 100 mM Na phosphate, 100 mM KCl, 8 mM TCEP, pH 7.6, room temperature; 4 mM dihydrolipoamide; apparent
T6 construct: gene lpdA; N-terminal His-tag (modified pET22b(+)), expressed in E. coli BL21(DE3) Codon+, HisTrap and gel filtration
T6 sequence (P0A9P0 2-474 E205G): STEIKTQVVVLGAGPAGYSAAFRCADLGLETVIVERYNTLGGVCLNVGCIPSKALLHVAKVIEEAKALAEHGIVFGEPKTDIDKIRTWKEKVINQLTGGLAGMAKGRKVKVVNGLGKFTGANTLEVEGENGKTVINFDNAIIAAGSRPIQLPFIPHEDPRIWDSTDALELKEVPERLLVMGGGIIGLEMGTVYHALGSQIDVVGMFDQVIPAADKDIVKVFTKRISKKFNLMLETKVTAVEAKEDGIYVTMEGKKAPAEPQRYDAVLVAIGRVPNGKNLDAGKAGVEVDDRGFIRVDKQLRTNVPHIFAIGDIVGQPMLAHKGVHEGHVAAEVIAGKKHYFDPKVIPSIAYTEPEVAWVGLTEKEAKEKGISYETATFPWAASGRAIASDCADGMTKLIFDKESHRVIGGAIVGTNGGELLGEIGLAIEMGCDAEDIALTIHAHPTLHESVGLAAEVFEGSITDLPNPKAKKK

[7] = biological target: T7, Lpd (dihydrolipoamide dehydrogenase; lipoamide dehydrogenase) (Escherichia coli, UniProt P0A9P0); assay: as above; conditions: 100 mM Na phosphate, 100 mM KCl, 8 mM TCEP, pH 7.6, room temperature, apparent
T7 construct: gene lpdA; N-terminal His-tag (modified pET22b(+)), expressed in E. coli BL21(DE3) Codon+, HisTrap and gel filtration
T7 sequence (P0A9P0 2-474): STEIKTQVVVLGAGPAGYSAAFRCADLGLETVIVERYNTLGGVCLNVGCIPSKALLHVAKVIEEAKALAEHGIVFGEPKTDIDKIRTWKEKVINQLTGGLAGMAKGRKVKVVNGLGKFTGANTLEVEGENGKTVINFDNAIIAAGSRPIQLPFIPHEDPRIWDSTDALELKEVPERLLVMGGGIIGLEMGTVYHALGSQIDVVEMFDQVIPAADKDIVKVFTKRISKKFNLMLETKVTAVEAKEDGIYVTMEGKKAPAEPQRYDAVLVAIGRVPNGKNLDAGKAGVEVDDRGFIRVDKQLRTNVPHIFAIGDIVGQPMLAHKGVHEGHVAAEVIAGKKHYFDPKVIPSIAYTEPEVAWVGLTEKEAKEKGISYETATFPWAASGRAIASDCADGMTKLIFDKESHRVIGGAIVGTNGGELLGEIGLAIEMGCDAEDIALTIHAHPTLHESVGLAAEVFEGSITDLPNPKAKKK

[8] = L-malate at 6 to 10 times its KM

SMILES | Km ([1]; other substrates at 6 to 10 times their KM) [µM] | Km [2] [µM] | Km [3] [µM] | Km [4] [µM] | Km [5] [µM] | Km [1, 8] [µM] | Km [6] [µM] | Km ([7]; 4 mM dihydrolipoamide) [µM] | Km [7] [µM]
O=C(O)C[C@H](O)C(=O)O [L-malate] | 630 ± 40 | – | – | – | – | – | – | – | –
NC(=O)c1ccc[n+]([C@@H]2O[C@H](COP(=O)(O)OP(=O)(O)OC[C@H]3O[C@@H](n4cnc5c(N)ncnc54)[C@H](OP(=O)(O)O)[C@@H]3O)[C@@H](O)[C@H]2O)c1 [NADP^+] | – | 16 ± 1 | 91 ± 10 | 2480 ± 690 | 13 | 3600 ± 400 | 3480 ± 1030 | – | –
NC(=O)c1ccc[n+]([C@@H]2O[C@H](COP(=O)(O)OP(=O)(O)OC[C@H]3O[C@@H](n4cnc5c(N)ncnc54)[C@H](O)[C@@H]3O)[C@@H](O)[C@H]2O)c1 [NAD^+] | – | 270 ± 30 | 1500 ± 200 | 6350 ± 380 | 270 ± 30 | 100 ± 20 | 9490 ± 1820 | 440 ± 60 | –
NC(=O)CCCC[C@@H](S)CCS [dihydrolipoamide] | – | – | – | – | – | – | – | – | 180 ± 20

Reference: PMC8406311, “Change in Cofactor Specificity of Oxidoreductases by Adaptive Evolution of an Escherichia coli NADPH-Auxotrophic Strain” (mBio, 2021)
